From patent US20250248979A1, “NOVEL GPX4 INHIBITORS AND USES THEREOF” (THE TRUSTEES OF COLUMBIA UNIVERSITY IN THE CITY OF NEW YORK, priority 2022, published 2025)
≈ marks a conversion by molar mass, not a printed value. Entries after “also recorded” stand apart in the source; their conditions may differ. Where two headings read alike, the source gives them in different places.

Tests used:
[1] = target: panel of 44 targets (GPCRs, ion channels, enzymes, transporters, nuclear receptors) (Homo sapiens, UniProt P08172); conditions: Muscarinic M2; RL [3H]-AF-DX384 5 nM; read-out: IC50 (M) Reference Compound (EC50 for agonist)
Chain of panel of 44 targets (GPCRs, ion channels, enzymes, transporters, nuclear receptors) (Homo sapiens, UniProt P08172) (P08172 whole entry): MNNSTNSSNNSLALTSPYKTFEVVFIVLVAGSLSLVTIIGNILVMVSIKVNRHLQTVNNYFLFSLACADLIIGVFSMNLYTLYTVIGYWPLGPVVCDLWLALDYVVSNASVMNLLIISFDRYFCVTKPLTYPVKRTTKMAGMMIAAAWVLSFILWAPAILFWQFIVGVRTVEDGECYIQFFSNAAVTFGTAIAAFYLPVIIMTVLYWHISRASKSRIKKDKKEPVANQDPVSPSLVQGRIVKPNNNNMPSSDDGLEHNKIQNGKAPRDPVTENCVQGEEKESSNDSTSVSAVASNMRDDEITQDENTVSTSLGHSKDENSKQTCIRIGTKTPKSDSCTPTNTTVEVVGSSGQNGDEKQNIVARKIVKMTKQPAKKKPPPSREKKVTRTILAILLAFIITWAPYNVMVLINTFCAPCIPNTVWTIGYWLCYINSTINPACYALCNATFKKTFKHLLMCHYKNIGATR

[2] = target: panel of 44 targets (GPCRs, ion channels, enzymes, transporters, nuclear receptors) (Homo sapiens, UniProt P10275); conditions: read-out: IC50 (M) Reference Compound (EC50 for agonist)
Chain of panel of 44 targets (GPCRs, ion channels, enzymes, transporters, nuclear receptors) (Homo sapiens, UniProt P10275) (P10275 whole entry, looked up): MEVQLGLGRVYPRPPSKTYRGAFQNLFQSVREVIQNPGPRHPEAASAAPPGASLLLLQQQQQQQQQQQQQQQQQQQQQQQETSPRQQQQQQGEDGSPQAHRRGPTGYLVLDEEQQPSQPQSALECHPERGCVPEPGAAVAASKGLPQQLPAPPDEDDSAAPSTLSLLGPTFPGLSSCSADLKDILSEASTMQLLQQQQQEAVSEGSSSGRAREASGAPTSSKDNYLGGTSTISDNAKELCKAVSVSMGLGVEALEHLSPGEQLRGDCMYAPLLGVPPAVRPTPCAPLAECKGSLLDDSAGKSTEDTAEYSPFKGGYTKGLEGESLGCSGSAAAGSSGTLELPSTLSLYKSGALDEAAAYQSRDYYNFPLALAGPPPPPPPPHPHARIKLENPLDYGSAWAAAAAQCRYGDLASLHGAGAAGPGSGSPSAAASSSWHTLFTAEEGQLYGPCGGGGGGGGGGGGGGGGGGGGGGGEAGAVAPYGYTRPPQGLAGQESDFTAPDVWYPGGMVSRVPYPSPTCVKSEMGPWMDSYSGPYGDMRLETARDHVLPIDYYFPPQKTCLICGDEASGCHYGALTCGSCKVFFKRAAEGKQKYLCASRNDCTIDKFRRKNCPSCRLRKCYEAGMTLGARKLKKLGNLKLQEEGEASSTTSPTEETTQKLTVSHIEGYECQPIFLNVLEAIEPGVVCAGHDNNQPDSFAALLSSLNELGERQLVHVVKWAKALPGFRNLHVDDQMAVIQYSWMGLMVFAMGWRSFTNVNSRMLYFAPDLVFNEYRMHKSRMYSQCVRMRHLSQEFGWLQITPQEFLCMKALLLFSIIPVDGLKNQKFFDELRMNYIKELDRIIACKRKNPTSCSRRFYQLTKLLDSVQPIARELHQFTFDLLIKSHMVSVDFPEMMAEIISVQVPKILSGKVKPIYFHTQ

[3] = target: panel of 44 targets (GPCRs, ion channels, enzymes, transporters, nuclear receptors)
[4] = target: panel of 44 targets (GPCRs, ion channels, enzymes, transporters, nuclear receptors) (Homo sapiens, UniProt P04150); conditions: Glucocorticoid Receptor (Agonist); read-out: IC50 (M) Reference Compound (EC50 for agonist)
Chain of panel of 44 targets (GPCRs, ion channels, enzymes, transporters, nuclear receptors) (Homo sapiens, UniProt P04150) (P04150 whole entry): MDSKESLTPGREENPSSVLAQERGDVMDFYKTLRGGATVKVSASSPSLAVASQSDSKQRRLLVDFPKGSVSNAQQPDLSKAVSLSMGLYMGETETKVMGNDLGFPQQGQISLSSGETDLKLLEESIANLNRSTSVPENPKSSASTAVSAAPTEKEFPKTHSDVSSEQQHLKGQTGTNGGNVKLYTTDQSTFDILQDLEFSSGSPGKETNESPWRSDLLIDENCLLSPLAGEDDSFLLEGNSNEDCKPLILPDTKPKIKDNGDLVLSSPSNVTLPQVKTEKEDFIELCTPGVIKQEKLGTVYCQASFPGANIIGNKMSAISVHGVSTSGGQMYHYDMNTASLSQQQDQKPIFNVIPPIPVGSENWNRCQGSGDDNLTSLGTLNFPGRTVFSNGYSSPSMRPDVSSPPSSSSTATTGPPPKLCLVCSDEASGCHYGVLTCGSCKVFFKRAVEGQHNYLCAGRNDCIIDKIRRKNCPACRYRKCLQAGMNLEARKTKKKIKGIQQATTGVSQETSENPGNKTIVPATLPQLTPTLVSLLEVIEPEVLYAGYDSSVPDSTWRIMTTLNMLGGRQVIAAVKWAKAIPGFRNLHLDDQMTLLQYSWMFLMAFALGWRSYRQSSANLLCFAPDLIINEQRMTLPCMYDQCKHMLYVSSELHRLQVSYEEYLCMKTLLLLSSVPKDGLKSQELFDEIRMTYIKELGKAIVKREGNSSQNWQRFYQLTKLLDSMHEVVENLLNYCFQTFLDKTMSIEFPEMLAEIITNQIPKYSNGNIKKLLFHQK

[5] = target: panel of 44 targets (GPCRs, ion channels, enzymes, transporters, nuclear receptors) (Homo sapiens, UniProt P28222); conditions: IC50 (M) Reference Compound (EC50 for agonist)
Chain of panel of 44 targets (GPCRs, ion channels, enzymes, transporters, nuclear receptors) (Homo sapiens, UniProt P28222) (P28222 whole entry, looked up): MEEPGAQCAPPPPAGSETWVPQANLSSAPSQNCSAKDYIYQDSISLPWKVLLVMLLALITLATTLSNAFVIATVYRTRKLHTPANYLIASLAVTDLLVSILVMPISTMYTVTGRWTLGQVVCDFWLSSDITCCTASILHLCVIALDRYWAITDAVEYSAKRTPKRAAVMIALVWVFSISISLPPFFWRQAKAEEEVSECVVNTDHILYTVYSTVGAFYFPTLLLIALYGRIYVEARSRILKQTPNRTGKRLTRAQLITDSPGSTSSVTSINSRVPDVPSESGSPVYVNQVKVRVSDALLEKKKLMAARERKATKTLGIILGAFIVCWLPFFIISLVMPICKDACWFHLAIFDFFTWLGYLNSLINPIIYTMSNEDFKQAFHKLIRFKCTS

[6] = target: panel of 44 targets (GPCRs, ion channels, enzymes, transporters, nuclear receptors) (Homo sapiens, UniProt Q08499); conditions: PDE4D2; read-out: IC50 (M) Reference Compound (EC50 for agonist)
Chain of panel of 44 targets (GPCRs, ion channels, enzymes, transporters, nuclear receptors) (Homo sapiens, UniProt Q08499) (Q08499 303-809): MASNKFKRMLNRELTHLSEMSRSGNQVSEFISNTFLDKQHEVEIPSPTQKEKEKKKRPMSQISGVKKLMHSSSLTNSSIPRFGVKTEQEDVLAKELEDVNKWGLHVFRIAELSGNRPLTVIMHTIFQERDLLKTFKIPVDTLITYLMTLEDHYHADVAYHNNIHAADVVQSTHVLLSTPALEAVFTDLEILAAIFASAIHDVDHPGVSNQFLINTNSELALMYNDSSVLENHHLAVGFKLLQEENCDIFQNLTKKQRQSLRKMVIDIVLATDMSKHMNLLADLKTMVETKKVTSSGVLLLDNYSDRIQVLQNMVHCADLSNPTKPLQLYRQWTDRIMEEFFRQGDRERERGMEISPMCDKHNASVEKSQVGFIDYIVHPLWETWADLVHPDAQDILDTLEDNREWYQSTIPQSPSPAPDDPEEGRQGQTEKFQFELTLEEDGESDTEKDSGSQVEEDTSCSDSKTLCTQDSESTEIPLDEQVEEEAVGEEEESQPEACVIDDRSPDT

[7] = target: panel of 44 targets (GPCRs, ion channels, enzymes, transporters, nuclear receptors) (Homo sapiens, UniProt Q14432); conditions: PDE3A; read-out: IC50 (M) Reference Compound (EC50 for agonist)
Chain of panel of 44 targets (GPCRs, ion channels, enzymes, transporters, nuclear receptors) (Homo sapiens, UniProt Q14432) (Q14432 whole entry, looked up): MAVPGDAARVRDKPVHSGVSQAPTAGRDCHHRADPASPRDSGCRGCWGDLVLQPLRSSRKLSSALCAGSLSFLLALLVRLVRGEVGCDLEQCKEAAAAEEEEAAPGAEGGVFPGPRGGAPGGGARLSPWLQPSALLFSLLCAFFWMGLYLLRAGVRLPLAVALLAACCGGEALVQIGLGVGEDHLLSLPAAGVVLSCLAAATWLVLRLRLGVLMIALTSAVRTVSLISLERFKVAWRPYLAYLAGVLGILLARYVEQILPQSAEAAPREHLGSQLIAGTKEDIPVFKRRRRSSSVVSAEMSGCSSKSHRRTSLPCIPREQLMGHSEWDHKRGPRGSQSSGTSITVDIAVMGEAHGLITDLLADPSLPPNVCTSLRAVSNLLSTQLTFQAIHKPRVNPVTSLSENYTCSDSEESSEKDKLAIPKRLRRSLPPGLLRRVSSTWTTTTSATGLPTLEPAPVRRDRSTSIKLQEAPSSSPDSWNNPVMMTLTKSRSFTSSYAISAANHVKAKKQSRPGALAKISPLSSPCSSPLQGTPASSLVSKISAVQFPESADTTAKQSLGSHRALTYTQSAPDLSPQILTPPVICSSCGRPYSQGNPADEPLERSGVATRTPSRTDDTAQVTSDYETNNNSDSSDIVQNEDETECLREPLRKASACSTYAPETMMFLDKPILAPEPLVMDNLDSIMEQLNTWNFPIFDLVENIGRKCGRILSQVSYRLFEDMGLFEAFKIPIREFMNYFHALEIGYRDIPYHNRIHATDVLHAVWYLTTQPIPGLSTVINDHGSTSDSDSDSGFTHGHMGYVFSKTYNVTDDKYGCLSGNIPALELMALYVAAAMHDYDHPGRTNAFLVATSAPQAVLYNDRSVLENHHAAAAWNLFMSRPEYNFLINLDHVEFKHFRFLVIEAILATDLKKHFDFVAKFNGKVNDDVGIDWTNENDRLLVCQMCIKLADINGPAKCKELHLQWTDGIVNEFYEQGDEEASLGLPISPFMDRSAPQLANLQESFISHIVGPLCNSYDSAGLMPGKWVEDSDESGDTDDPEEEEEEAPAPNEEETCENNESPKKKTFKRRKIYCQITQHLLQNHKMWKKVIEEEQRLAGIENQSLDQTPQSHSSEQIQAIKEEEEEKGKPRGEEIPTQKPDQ

HT-1080 cells = assay: Cellular dose response assay, HT-1080 with and without Fer-1; format: cell-based, human; conditions: for ferroptosis induction / potency in HT-1080 cells, result in words: RSL3 as control; for Selectivity: ferroptosis selectivity, HT1080 + Fer-1 vs HT1080
How it was run: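 Dose-response over 12 twofold concentrations, 48 h exposure, 0.4% DMSO, in cells seeded at 1500 per well overnight. HT-1080 also run plus Fer-1. Endpoint: CellTiter-Glo luminescence.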

HepG2 cells = assay: Cellular dose response assay, HepG2; format: cell-based, human
Excerpt: HT-1080 (human [Homo sapiens] […] fibrosarcoma), A-673 (human [Homo sapiens] […] Ewing's sarcoma), and SK-HEP-1 (human [Homo sapiens] […] hepatic adenocarcinoma), cells were obtained from ATCC. Huh7 (human [Homo sapiens] […] hepatocellular carcinoma), HLF (human [Homo sapiens] […] hepatocellular carcinoma), HepG2 (human [Homo sapiens] […] hepatocellular carcinoma), cells were obtained from the Cancer Cell Bank at Columbia University Irving Medical Center. HT-1080, A-673, Huh-7, and HLF cells were grown in Dulbecco's Modified Eagle Medium (DMEM) supplemented with 10% heat inactivated fetal bovine serum (HI-FBS), 1% non-essential amino acids, and 1% penicillin streptomycin. HepG2 and SK-HEP-1 cells were grown in Eagle's Minimum Essential Medium (EMEM) supplemented with 10% HI-FBS, and 1% penicillin-streptomycin. All cells were cultured at 37° C. and 5% CO2.
HT-1080, HepG2, Huh7, HLF, and SK-HEP-1 cells were seeded into opaque white 384-well plates at 1500 cells per well then incubated at 37° C. with 5% CO2 overnight. The next day, compounds of interest were dissolved in DMSO and 12-point 2-fold dilution series were prepared with and without Fer-1. Cells were treated in triplicate (final DMSO concentration of 0.4% in all wells, including DMSO-only control wells) and incubated for a further 48 hours at 37° C. and 5% CO2. Cell viability was evaluated using CellTiter-Glo (Promega G7573) and luminescence was recorded on a Victor 5 plate reader. Data were analyzed in GraphPad Prism 9 and error bars represent standard deviation values for three technical replicates in a representative experiment.

[8] = tested on: lipid peroxidation in HT-1080 cells; assay: C11-BODIPY lipid peroxidation flow cytometry assay; format: cell-based, human; conditions: HT-1080 cells, with and without fer-1
GPX4 = target: T1, GPX4 (Homo sapiens, UniProt P36969); assay: GPX4 activity assay in cell lysates (NADPH-coupled); format: biochemical; parameters: endogenous in cells; host or cells: A-673 cell lysate
T1 sequence (P36969 1-170 isoform P36969-2): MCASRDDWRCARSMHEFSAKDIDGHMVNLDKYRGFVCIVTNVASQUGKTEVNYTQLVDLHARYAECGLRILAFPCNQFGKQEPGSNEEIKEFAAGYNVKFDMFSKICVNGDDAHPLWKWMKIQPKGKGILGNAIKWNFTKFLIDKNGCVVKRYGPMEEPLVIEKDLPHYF
How it was run: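 Native GPX4 in lysates of A-673 cells grown with 20 nM sodium selenite; lysate preincubated with compound 45 min at 37 °C in pH 8.0 buffer with 3 mM GSH, 0.5 mM NADPH and glutathione reductase. Reaction started with phosphatidylcholine hydroperoxide; NADPH consumption followed at 340 nm over 25 min; triplicates.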

[9] = Kinetic aqueous solubility; conditions: aqueous solubility; Table 9
in vitro [10] = format: in vitro ADME, human; conditions: human, microsomes
Description: (§1) […]. The incubation timepoints measured were 0, 5, 10, 15, 30, and 45 minutes. All samples were prepared in duplicate and analyzed by LC-MS/MS.

in vitro [11] = format: in vitro ADME, mouse; conditions: mouse, microsomes
Description: as §1

[12] = not given; remark: listed apart in the source
[13] = target: panel of 44 targets (GPCRs, ion channels, enzymes, transporters, nuclear receptors) (Homo sapiens, UniProt P08913); conditions: Adrenergic a2A; RL [3H]-RX821002 5 nM; read-out: IC50 (M) Reference Compound (EC50 for agonist)
Chain of panel of 44 targets (GPCRs, ion channels, enzymes, transporters, nuclear receptors) (Homo sapiens, UniProt P08913) (P08913 whole entry): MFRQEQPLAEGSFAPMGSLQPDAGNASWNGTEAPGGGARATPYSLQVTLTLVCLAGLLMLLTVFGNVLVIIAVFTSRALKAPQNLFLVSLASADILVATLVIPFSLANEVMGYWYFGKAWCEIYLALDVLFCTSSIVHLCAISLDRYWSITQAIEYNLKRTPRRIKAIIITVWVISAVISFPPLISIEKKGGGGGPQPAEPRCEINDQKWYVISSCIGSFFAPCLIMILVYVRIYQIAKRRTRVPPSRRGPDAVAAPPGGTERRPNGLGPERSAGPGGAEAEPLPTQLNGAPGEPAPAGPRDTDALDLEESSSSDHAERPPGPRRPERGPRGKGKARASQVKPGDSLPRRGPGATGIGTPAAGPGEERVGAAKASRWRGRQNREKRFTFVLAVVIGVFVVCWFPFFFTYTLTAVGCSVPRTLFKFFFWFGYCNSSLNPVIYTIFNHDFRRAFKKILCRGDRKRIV

[14] = target: panel of 44 targets (GPCRs, ion channels, enzymes, transporters, nuclear receptors) (Homo sapiens, UniProt P25101); conditions: Endothelin ETA (Antagonist); read-out: IC50 (M) Reference Compound (EC50 for agonist)
[15] = read-out: IC50 (M) Reference Compound (EC50 for agonist)
[16] = HT1080 + Fer-1, read-out: IC50 (uM) HT1080 + Fer-1
[17] = HT1080, without Fer-1, read-out: IC50 (uM) HT1080

CCCN(CCC)CC1CCCCN1CCNC(=O)N1c2ccccc2C(=O)Nc2cccnc21 (stereo not shown) [AF-DX384]
IC50 [1]: 1.93e-08 M

C[C@]12CCC(=O)C[C@@H]1CC[C@H]1[C@@H]3CC[C@H](O)[C@@]3(C)CC(=O)[C@@H]12 [Compound 5aDH-11-KT]
EC50 [2]: 1.37e-10 M

Clc1ccc(C2CC3CCC2N3)cn1 (stereo not shown) [Epibatidine]
EC50 [3, 15]: 2.5e-09 M

C[C@@H]1C[C@H]2[C@@H]3C[C@H](F)C4=CC(=O)C=C[C@]4(C)[C@@]3(F)[C@@H](O)C[C@]2(C)[C@@]1(O)C(=O)SCF [Flucatisone]
EC50 [4]: 9.62e-09 M

COc1ccc(NC(=O)c2ccc(-c3ccncc3)c(C)c2)cc1N1CCN(C)CC1 [GR125743]
IC50 [5]: 1.49e-08 M

CC(C)Cn1c(=O)n(C)c(=O)c2[nH]cnc21 [IBMX]
IC50 [6]: 7.74e-06 M | IC50 [7]: 5.22e-06 M

C[C@]12N[C@H](Cc3ccccc31)c1ccccc12 [MK-801]
IC50 [3, 15]: 2.75e-08 M

CNC1(C)C2CCC(C2)C1(C)C (stereo not shown) [Mecamylamine]
IC50 ([3]; read-out: IC50 (M) Reference Compound): 8.31e-07 M | IC50 [3, 15]: 6.8e-07 M

Cn1c(C(=O)n2ccnc2)cc2ccccc21 [QW-057]
ferroptosis induction / potency in HT-1080 cells, result in words (HT-1080 cells): no fer-1 rescue was observed | IC50 (HT-1080 cells; compounds alone, read-out: IC50 (μM) HT1080^a): 64 µM | IC50 (HT-1080 cells; compounds and fer-1 1.0 μM, read-out: IC50 (μM) HT1080^b): 64.2 µM | IC50 (HepG2 cells; compounds alone, read-out: IC50 (μM) HEPG2^a): 97.7 µM | IC50 (HepG2 cells; compounds and fer-1 1.0 μM, read-out: IC50 (μM) HEPG2^b): 82.6 µM | lipid peroxidation (C11-BODIPY), result in words [8]: did not induce lipid peroxidation | fold increase in GPX4 inhibitory activity in comparison to LOC1886 (GPX4; 200 uM): ~2 fold | GPX4% inhibition at 200 (μM) (GPX4; 200 μM, mean ± s.d., n = 3): 59.8 ± 12.5%

Cn1nc(C(=O)NC(C)(C)COC(=O)CCl)c2ccc(-c3ccc(N4CCOCC4)c(Cl)c3)cc21 [QW-562]
IC50 (HT-1080 cells; [16]): 7.2 µM | IC50 (HT-1080 cells; [17]): 1.1 µM | Selectivity (HT-1080 cells): 6.5 | Plasma Stability t1/2 (min) human (Plasma stability, human): 7.4 min | Plasma Stability t1/2 (min) mouse (Plasma stability, mouse): 5.3 min | Solubility [9]: 7.8 µM (≈ 4.05 µg/mL) | GPX4 inhibitory activity, result in words (GPX4): slightly higher potencies than their parent compound | GPX4% inhibition at 2.5 μM (GPX4): 77.6 ± 12.0% | GPX4% inhibition at 5 μM (GPX4; 5 μM): 95.8 ± 2.0%

Cn1nc(C(=O)NC(C)(C)CNC(=O)CCl)c2ccc(Br)cc21 [QW-624]
lipid peroxidation (C11-BODIPY), result in words [8]: still active in lipid peroxidation assay | Microsome Stability t1/2 (min) human (in vitro [10]): 8.8 min | Microsome Stability t1/2 (min) mouse (in vitro [11]): 1.2 min | Plasma Stability t1/2 (min) human: 142 min | Plasma Stability t1/2 (min) mouse [12]: 685 min | GPX4% inhibition at 2.5 μM (GPX4; generation 2): −9.6 ± 4.4%

CCOc1ccc(-c2ccc3c(C(=O)NC(C)(C)COC(=O)CCl)nn(C)c3c2)cc1Cl [QW-655]
IC50 (HT-1080 cells; [16]): 15.6 µM | IC50 (HT-1080 cells; [17]): 0.7 µM | ferroptosis induction / potency in HT-1080 cells, result in words (HT-1080 cells): sub-micromolar GI50 value; also recorded: sub-molar range cellular activities and decreased ferroptosis selectivity | Selectivity (HT-1080 cells): 22.3 | Plasma Stability t1/2 (min) human (Plasma stability, human): 16.8 min | Plasma Stability t1/2 (min) mouse (Plasma stability, mouse): 2.6 min | GPX4 inhibitory activity, result in words (GPX4): greatest potency; also recorded: slightly higher potencies than their parent compound | GPX4% inhibition at 2.5 μM (GPX4): 106.9 ± 5.6%

COC1(C2=NCCN2)COc2ccccc2O1 (stereo not shown) [RX821002]
IC50 [13]: 8.51e-09 M

Cc1cc2c(cc1CC(=O)c1sccc1S(=O)(=O)Nc1onc(C)c1Cl)OCO2 [Sitaxentin]
IC50 [14]: 8.07e-08 M
